Laboratory results taken from US20050171053A1, “Carrageenan based antimicrobial compositions” (FMC Corporation, priority 2002, published 2005).
“Also recorded” adds a separate entry of the source.

What was measured:
progestational potency = details: cited from earlier work
[1] = test system: androgenic, estrogenic and glucocorticoid-like (hepatic glycogen deposition) activity; details: cited from earlier work
[2] = in vivo; cited from earlier work
[3] = Diffusion of NES through a dialysis membrane (HPLC); format: physicochemical; details: molecular weight cutoff 1000, HPLC
From the text: FIG. 10 is a graph of the amount of Nestorone released from a composition containing the carrageenans of the present invention.
We examined diffusion of NES through a dialysis membrane with a molecular weight cutoff of 1000. The molecular weight of NES is 370. […] Results are illustrated in FIG. 10. […] However, the rate of diffusion observed through the dialysis membrane cannot be related to the rate of diffusion that would be observed in the human vagina as the rate of diffusion was dependant on the surface area of the dialysis bag. Conditions in the vagina would be different.
Diffusion of NES from CARRA/NES was investigated by two different methods, membrane dialysis and Ultrafree-15 centrifugation. In the membrane dialysis experiments, the membrane cutoff is 1,000, and diffusion of NES was measured by HPLC. […] In the Ultrafree-15 centrifugation experiments, a Millipore, Ultrafree-15 centrifugal filter and tube assembly was employed, which allows the passage of molecules of a MW<500 pass through; NES MW is 370.

[4] = in vivo, po; cited from earlier work
[5] = in vivo, po; cited from earlier work; remark: listed apart in the source
HSV-2 = test: HSV-2/mouse system, formulations with and without LSA; format: in vivo, mice; details: for effect of addition to the K-II/λ carrageenan composition on efficacy against HSV-2 infection in mice: 5% added
Protocol: LSA-carrageenan was compared to carrageenan in the HSV-2/mouse system in order to determine efficacy in blocking viral infection in vivo.
Each formulation is initially tested in a total of 20 mice. Compounds or formulations that show a blocking effect are assayed again in another 20 mice.
Subsequently, LSA was assayed without Carrageenan to better evaluate its inhibitory properties. LSA was added to the inert thickener, methylcellulose, to maintain the same viscosity that vaginal products (lubricants, spermicides, and microbicides) generally have. (Data shown below.)

HIV = test: Protection of epithelial cells in vitro against HIV infection; format: cell-based
From the text: FIG. 5 is a plot of the percent inhibition by LSA of viral replication as measured by p24 ELISA.
(§1) LSA is effective as a microbicide against HSV-2 infection, HIV, and other STI's, with or without carrageenan. […] The inhibitory effect may be observed with other enveloped viruses such as the human pathogen, human T cell leukemia virus. In addition, epithelial cells are protected against the human papillomavirus, which is not an enveloped virus. The inhibitory efficaciousness of LSA may thus extend to a broader range of STI's.

human papillomavirus = test: Protection of epithelial cells against human papillomavirus; format: cell-based
From the text: as §1

## C=C1C[C@H]2[C@@H]3CCC4=CC(=O)CC[C@@H]4[C@H]3CC[C@]2(C)[C@@]1(OC(C)=O)C(C)=O [NES, 16-methylene-17α-acetoxy-19-norpregn-4-ene-3,20-dione]
Progestational potency
  progestational activity relative to levonorgestrel: 10 times
  progestational activity relative to progesterone: 100 times
[1]
  androgenic, estrogenic and glucocorticoid-like activity: lack of androgenic, estrogenic and glucocorticoid-like
[2]
  metabolism upon oral administration: rapid metabolism and inactivation
[3]
  diffusion of NES through dialysis membrane: diffused from the dialysis bag at a constant rate

## carrageenan
[4]
  toxicity: non-toxic
[5]
  absorption: virtually non-existent
  breakdown in the gastrointestinal tract: minimal at best

## dextran sulfate
HSV-2
  effect of addition to the K-II/λ carrageenan composition on efficacy against HSV-2 infection in mice: had no effect on efficacy

## heparin
HSV-2
  effect of addition to the K-II/λ carrageenan composition on efficacy against HSV-2 infection in mice: had no effect on efficacy

## lignosulfonic acid [LSA]
HIV
  protection of epithelial cells against HIV infection: effective in protecting
Human papillomavirus
  protection of epithelial cells against human papillomavirus: protected
HSV-2; concentration of 0.25%
  effectiveness of LSA: highly effective
HSV-2; mouse, in vivo
  blocking of HSV-2 infection in mice by LSA without carrageenan: more effective than carrageenan; also recorded: effective in protecting
